Measured values: patent publication US5840720A (priority 1995, dated 1998)
Several values for one entry are separate records, joined by “and”; a condition that tells them apart may be missing. Identical values can stand only once. Like-named read-outs stand apart in the source and are kept apart here. Where no end group is shown, it is not given here.

Assays:
[1] = tested on: calcium channel in the isolated guinea-pig atrium; test: CaCl2-induced chronotropic and inotropic effects in isolated guinea-pig atria; settings: for inhibition of calcium-induced chronotropic and inotropic effects: pretreatment, increasing CaCl2, right and left atria
Description: Each point represents the mean of six experiments; vertical bars represent the S.E.M.
FIGS. 6A-6B Effect of CAPCNC6 (10 μM) on the positive chronotropic (spontaneously beating right atrium) and inotropic (electrically-driven left atria) effect of increasing Ca^2+ concentrations in guinea pigs. Beating rate and tension were expressed as % of control values. Data represents the mean±S.E.M. (n=7).
D. Effects of compound on the calcium channel in the isolated guinea-pig atrium

[2] = tested on: isolated guinea-pig trachea; test: Capsaicin-induced contractility of isolated guinea-pig trachea; set-up: species or system guinea pig (Hartley); settings: 0.01-30 μM capsaicin, cumulative
Description: Each point represents mean±S.E.M of six experiments.
A. Antagonist activity of compounds on capsaicin-induced contractility of isolated guinea-pig bronchi and trachea
Adult guinea pigs (Hartley), weighing 350-450 g, were sacrificed by a blow on the head followed by cervical dislocation. The bronchi and trachea were removed from the lungs, cleaned of all parenchyma, and immediately placed in Kreb's solution. As the method reported by M. G. Belvisi et al. (Eur. J. Pharmacol. 215, 341-4, 1992).

[3] = tested on: isolated guinea-pig ileum; test: Capsaicin, substance P and carbachol-induced contractility of isolated guinea-pig ileum; settings: for contraction of ileum smooth muscle: carbachol as control, substance P 0.1 μM; for inhibition of substance P-induced ileum contraction: SP 0.1 μM
Description: FIG. 4 The effects of CAPBZ on response of guinea-pig ileum to capsaicin (10 μM), substance P (SP, 0.1 μM), and carbachol (0.5 μM). […] Thirty minutes following washout, responses to SP, and carbachol were recovered.
C. Antagonist activity of compound on capsaicin and substance Pinduced contractilities of isolated guinea-pig ileum
The abdominal incisions for the guinea pig were made and ilea were isolated and placed in cold (4° C.) Tyrode's solution. 2.5 cm segments of ileum were then trimmed and suspended in an organ bath containing 20 ml low calcium Kreb's solution, aerated with 95% O2 and 5% CO2 at 37° C. As the method reported by M. Takaki et al. (Eur. J. Pharmacol. 174, 5762, 1989).
This effect of capsaicin or substance P was inhibited in the presence of 1.0-100 μM of compound 1 (CAPBZ), concentration-dependently.

[4] = tested on: neuronal calcium currents; settings: cited from earlier work
airway = settings: inhalation; cited from earlier work
[5] = tested on: isolated guinea-pig bronchi; set-up: species or system guinea pig (Hartley)
[6] = tested on: isolated guinea-pig right and left atria
neuronal sodium currents = settings: cited from earlier work
[7] = tested on: isolated guinea-pig atria; settings: cited from earlier work; for action potential duration: guinea pig atria
[8] = tested on: capsaicin-induced heart rate changes; type: in vivo, Wistar rats
[9] = tested on: capsaicin-induced blood pressure changes; type: in vivo, Wistar rats
guinea-pig bronchi = settings: cited from earlier work
[10] = tested on: capsaicin-induced hypotensive reflex; type: in vivo, rats
capsaicin = settings: cited from earlier work
[11] = tested on: isolated guinea-pig right and left atrium; test: hCGRP-induced beating and tension of isolated guinea-pig atria
[12] = fast phase, 15 min infusion, one compartment model
[13] = slow phase, 15 min infusion, one compartment model
[14] = A phase, 15 min i.v. infusion 100 μg/kg/min, capsaicin 10 μg/kg i.v., one compartment model
[15] = C phase, 15 min i.v. infusion 100 μg/kg/min, capsaicin 10 μg/kg i.v., one compartment model
[16] = capsaicin 0.01-30 μM cumulative, compound 1 and 3 at 1.0-100 μM, capsazepine 1-10 μM
[17] = pretreatment i.t. 1 nmole, capsaicin i.a. 10 μg/kg, mean±S.E.M., n=6, control (None) -19.6 ± 1.9
[18] = 0.1-10 μM compound, 1.0 μM capsaicin, concentration-dependent

[Ca+2].[Cl-].[Cl-] [CaCl2, reference compound]
inotropic effect ([1]; cumulative CaCl2, electrically driven left atrium): positive inotropic effect | chronotropic effect ([1]; cumulative CaCl2, spontaneously beating right atrium): positive chronotropic effect

COc1cc(CNC(=O)CCCC/C=C/C(C)C)ccc1O [Capsaicin]
contraction of isolated guinea-pig trachea [2]: concentration-dependent increase in contraction | contraction of ileum smooth muscle ([3]; capsaicin 10 μM): weaker contractions | inhibition of neuronal calcium currents [4]: inhibit neuronal calcium currents | airway resistance (airway): increase airway resistance and leads to bronchoconstriction | contraction of isolated guinea-pig bronchi ([5]; 0.01-30 μM capsaicin, cumulative): concentration-dependent increase in contraction | inotropic and chronotropic effect [6]: positive inotropic and chronotropic response | inotropic and chronotropic effect ([6]; listed as capsaicin): positive inotropic and chronotropic effect | inhibition of neuronal sodium currents (neuronal sodium currents): inhibit neuronal sodium currents | action potential duration [7]: prolong action potential duration | chronotropic and inotropic effects ([7]; isolated guinea-pig atria): potent positive chronotropic and inotropic effects

Oc1cc2c(cc1O)CN(C(=S)NCCc1ccc(Cl)cc1)CCC2 [Capsazepine, reference compound]
Recovery half-life (t1/2) of capsaicin-induced heart rate changes, fast phase [8, 12]: 1.36 min | Recovery half-life (t1/2) of capsaicin-induced heart rate changes, slow phase [8, 13]: 3/52 | efficacy order of antagonist activities, A effect ([9]; A effect): capsazepine>NVABZ>NVABI | Recovery half-life (t1/2) of capsaicin-induced blood pressure changes, A phase [9, 14]: 2.73 min | efficacy order of antagonist activities, B effect ([9]; B effect): NVABI>capsazepine>NVABZ | Recovery half-life (t1/2) of capsaicin-induced blood pressure changes, B phase ([9]; 15 min i.v. infusion 100 μg/kg/min, capsaicin 10 μg/kg i.v., one compartment model): 2.89 min | efficacy order of antagonist activities, C effect ([9]; C effect): capsazepine>NVABI>NVABZ | Recovery half-life (t1/2) of capsaicin-induced blood pressure changes, C phase [9, 15]: 3.78 min | duration order of antagonist activities ([9]; rat, in vivo): NVABZ>NVABI>capsazepine | recovery of antagonist activity to basal level ([9]; saline infusion after 100 μg/kg/min infusion): recovered to basal level by saline infusion for 30, 45, and 60 minutes gradually | inhibition of contractile response evoked by capsaicin or electrical field stimulation (guinea-pig bronchi): effective in inhibiting the contractile response | shift of capsaicin-induced contraction in bronchi [5, 16]: shifted rightward | depressor reflex response: capsaicin-induced blood pressure changes after pretreatment [10, 17]: 25.8 ± 3.0 | capsaicin antagonism / agonism (capsaicin): competitive capsaicin antagonist

CCCCCCCCC(=O)NCc1cc2c(c(OC)c1)OCN(c1ccc(C(=O)OCC)cc1)C2 [Compound 1, N[P-(carboxylic acid ethyl ester)-phenylamine-(4-oxymethylene, 5-methylene)-3-methoxybenzyl] nonanamide]
inhibition of substance P-induced ileum contraction ([3]; compound 1.0-100 μM): inhibited | inhibition of substance P-induced ileum contraction ([3]; compound 1.0-100 μM, listed as CAPBZ): concentration-dependently reduction of response | reduction of ileum response to carbachol ([3]; carbachol 0.5 μM, FIG. 4): concentration-dependently reduction of response | inhibition of capsaicin-induced ileum contraction ([3]; compound 1.0-100 μM, capsaicin 10 μM, concentration-dependent): inhibited | recovery of responses to SP and carbachol after washout ([3]; thirty minutes following washout): recovered | change of CGRP-induced contractilities after CGRP pretreatment ([11]; after pretreatment with CGRP for 30 minutes): could not change CGRP-induced contractilities | inhibition of hCGRP-induced beating and tension ([11]; right and electrically driven left atrium, FIG. 7 CAPBZ 50 μM): not inhibited | inhibitory effect in bronchi compared with trachea ([5]; against capsaicin-induced contraction): more effective in bronchi than in trachea | shift of capsaicin-induced contraction in bronchi [5, 16]: shifted rightward | inhibition of capsaicin-induced positive inotropic and chronotropic effect [6, 18]: significantly inhibited | effect of pretreatment on capsaicin-induced inotropic and chronotropic response ([6]; pretreatment for 30 min, capsaicin 1 μM, FIGS. 3A-3D): decreased the effect of capsaicin | inhibition of calcium-induced chronotropic and inotropic effects [1]: could inhibit these calcium effects

CCCCCCCCC(=O)NCc1cc2c(c(OC)c1)OCN(CCCCCC)C2 [Compound 6, N-[hexylamino-(4-oxymethene, 5-methylene)-3-methoxybenzyl] nonanamide]
inhibition of capsaicin-induced positive inotropic and chronotropic effect [6, 18]: significantly inhibited | inhibition of calcium-induced chronotropic and inotropic effects [1]: could inhibit these calcium effects

C[N+](C)(C)CCOC(N)=O [carbachol, reference compound]
contraction of ileum smooth muscle ([3]; capsaicin 10 μM): maximum contraction

CCCCCCCCC(=O)NCc1ccc(OCC(O)CO)c(OC)c1 (centres unmarked) [glyceryl nonivamide]
capsaicin antagonism / agonism (capsaicin): selective capsaicin agonist

CGRP
action potential duration [7]: prolong action potential duration

N-[(4-hydroxy, 5-diethylaminomethyl)-3-methyoxybenzyl] nonamide [Compound 11]
Recovery half-life (t1/2) of capsaicin-induced heart rate changes, fast phase ([8]; rat, in vivo): 11.95 min | Recovery half-life (t1/2) of capsaicin-induced heart rate changes, slow phase ([8]; rat, in vivo): 15.75 min | duration order of antagonist activities ([9]; rat, in vivo): NVABZ>NVABI>capsazepine | efficacy order of antagonist activities, A effect ([9]; rat, in vivo): capsazepine>NVABZ>NVABI | efficacy order of antagonist activities, B effect ([9]; rat, in vivo): NVABI>capsazepine>NVABZ | efficacy order of antagonist activities, C effect ([9]; rat, in vivo): capsazepine>NVABI>NVABZ | recovery of antagonist activity to basal level ([9]; rat, in vivo): recovered to basal level by saline infusion for 30, 45, and 60 minutes gradually | Recovery half-life (t1/2) of capsaicin-induced blood pressure changes, A phase ([9]; rat, in vivo, iv): 10.67 min | Recovery half-life (t1/2) of capsaicin-induced blood pressure changes, C phase ([9]; rat, in vivo, iv): 21.75 min | effect of pretreatment on capsaicin-induced inotropic and chronotropic response [6]: decreased the effect of capsaicin | inhibition of capsaicin-induced positive inotropic and chronotropic effect [6]: significantly inhibited | depressor reflex response: capsaicin-induced blood pressure changes after pretreatment ([10]; rat, in vivo): 19.2 ± 2.5

N[p-ethylketone-phenylamino-(4-oxymethylene, 5-methylene)-3-methoxybenzyl] nonamide [Compound 12]
Recovery half-life (t1/2) of capsaicin-induced heart rate changes, fast phase [8, 12]: 5.33 min | Recovery half-life (t1/2) of capsaicin-induced heart rate changes, slow phase [8, 13]: 6.00 min | Recovery half-life (t1/2) of capsaicin-induced blood pressure changes, A phase [9, 14]: 4.30 min | Recovery half-life (t1/2) of capsaicin-induced blood pressure changes, B phase ([9]; 15 min i.v. infusion 100 μg/kg/min, capsaicin 10 μg/kg i.v., one compartment model, listed as NVADA): 9.00 min and 9.01 min | Recovery half-life (t1/2) of capsaicin-induced blood pressure changes, C phase [9, 15]: 4.49 min | inhibition of capsaicin-induced positive inotropic and chronotropic effect [6, 18]: significantly inhibited | depressor reflex response: capsaicin-induced blood pressure changes after pretreatment [10, 17]: -10.6 ± 2.5

[N-Allylamino-(4-oxymethylene, 5-methylene)-3-methoxybenzyl] nonanamide [Compound 3]
inhibitory effect in bronchi compared with trachea [5]: more effective in bronchi than in trachea | shift of capsaicin-induced contraction in bronchi [5]: shifted rightward

substance P: SP (substance P) (RPKPQQFFGLM; ends and bridges not checked; UniProt P20366 58-68, looked up) [reference compound]
contraction of ileum smooth muscle ([3]; capsaicin 10 μM): weaker contractions
